# Source: US9693556B2, “Herbicidal pyridazinone derivatives” (SYNGENTA LIMITED, priority 2011, dated 2017)
# What was measured:
# Assay type in all cases: in vivo
# [1] = tested on: Alopecurus myosuroides (ALOMY); test: Pre-emergence herbicidal glasshouse test on Alopecurus myosuroides; conditions: pre-emergence, 1000 g/h, evaluated after 13 days; for herbicidal damage, PRE Application ALOMY: five point scale
# How it was run: (§1)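 Read-out: percentage herbicidal damage 13 days after spraying, given on a five-point scale (5=80-100%, 4=60-79%, 3=40-59%, 2=20-39%, 1=0-19%). Pots of standard soil; application at 1000 g/h, one day post-sowing for pre-emergence, eight days for post-emergence.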
# Setaria faberi (SETFA) [2] = test: Post-emergence herbicidal glasshouse test on Setaria faberi; conditions: post-emergence, 1000 g/h, evaluated after 13 days; for herbicidal damage, POST Application SETFA: five point scale
# How it was run: as §1
# Solanum nigrum (SOLNI) [3] = test: Pre-emergence herbicidal glasshouse test on Solanum nigrum; conditions: pre-emergence, 1000 g/h, evaluated after 13 days; for herbicidal damage, PRE Application SOLNI: five point scale
# How it was run: as §1
# [4] = tested on: Echinochloa crus-galli (ECHCG); test: Pre-emergence herbicidal glasshouse test on Echinochloa crus-galli; conditions: pre-emergence, 1000 g/h, evaluated after 13 days; for herbicidal damage, PRE Application ECHCG: five point scale
# How it was run: as §1
# Solanum nigrum (SOLNI) [5] = test: Post-emergence herbicidal glasshouse test on Solanum nigrum; conditions: post-emergence, 1000 g/h, evaluated after 13 days; for herbicidal damage, POST Application SOLNI: five point scale
# How it was run: as §1
# [6] = tested on: Amaranthus retoflexus (AMARE); test: Pre-emergence herbicidal glasshouse test on Amaranthus retoflexus; conditions: pre-emergence, 1000 g/h, evaluated after 13 days; for herbicidal damage, PRE Application AMARE: five point scale
# How it was run: as §1
# [7] = tested on: Ipomoea hederacea (IPOHE); test: Post-emergence herbicidal glasshouse test on Ipomoea hederacea; conditions: post-emergence, 1000 g/h, evaluated after 13 days; for herbicidal damage, POST Application IPOHE: five point scale
# How it was run: as §1
# [8] = tested on: Ipomoea hederacea (IPOHE); test: Pre-emergence herbicidal glasshouse test on Ipomoea hederacea; conditions: pre-emergence, 1000 g/h, evaluated after 13 days; for herbicidal damage, PRE Application IPOHE: five point scale
# How it was run: as §1
# [9] = tested on: Amaranthus retoflexus (AMARE); test: Post-emergence herbicidal glasshouse test on Amaranthus retoflexus; conditions: post-emergence, 1000 g/h, evaluated after 13 days; for herbicidal damage, POST Application AMARE: five point scale
# How it was run: as §1
# Setaria faberi (SETFA) [10] = test: Pre-emergence herbicidal glasshouse test on Setaria faberi; conditions: pre-emergence, 1000 g/h, evaluated after 13 days; for herbicidal damage, PRE Application SETFA: five point scale
# How it was run: as §1
# [11] = tested on: Echinochloa crus-galli (ECHCG); test: Post-emergence herbicidal glasshouse test on Echinochloa crus-galli; conditions: post-emergence, 1000 g/h, evaluated after 13 days; for herbicidal damage, POST Application ECHCG: five point scale
# How it was run: as §1
# [12] = tested on: Alopecurus myosuroides (ALOMY); test: Post-emergence herbicidal glasshouse test on Alopecurus myosuroides; conditions: post-emergence, 1000 g/h, evaluated after 13 days; for herbicidal damage, POST Application ALOMY: five point scale
# How it was run: as §1
SMILES,PRE Application ALOMY herbicidal damage (five point scale) [1],POST Application SETFA herbicidal damage (five point scale) (Setaria faberi (SETFA) [2]),PRE Application SOLNI herbicidal damage (five point scale) (Solanum nigrum (SOLNI) [3]),PRE Application ECHCG herbicidal damage (five point scale) [4],POST Application SOLNI herbicidal damage (five point scale) (Solanum nigrum (SOLNI) [5]),PRE Application AMARE herbicidal damage (five point scale) [6],POST Application IPOHE herbicidal damage (five point scale) [7],PRE Application IPOHE herbicidal damage (five point scale) [8],"herbicidal damage, PRE Application ALOMY [1]","herbicidal damage, POST Application SETFA (Setaria faberi (SETFA) [2])","herbicidal damage, PRE Application SOLNI (Solanum nigrum (SOLNI) [3])","herbicidal damage, PRE Application ECHCG [4]","herbicidal damage, POST Application SOLNI (Solanum nigrum (SOLNI) [5])","herbicidal damage, PRE Application AMARE [6]","herbicidal damage, POST Application IPOHE [7]","herbicidal damage, PRE Application IPOHE [8]","herbicidal damage, POST Application AMARE [9]","herbicidal damage, PRE Application SETFA (Setaria faberi (SETFA) [10])","herbicidal damage, POST Application ECHCG [11]","herbicidal damage, POST Application ALOMY [12]",also measured
COCn1ncc(-c2ccc(C(F)(F)F)cc2[S+](C)[O-])c(O)c1=O (stereo not drawn) [Compound 1.146],4 (4=60-79% damage),5 (5=80-100% damage),5 (5=80-100% damage),5 (5=80-100% damage),5 (5=80-100% damage),5 (5=80-100% damage),5 (5=80-100% damage),4 (4=60-79% damage),–,–,–,–,–,–,–,–,–,–,–,–,POST Application AMARE herbicidal damage (five point scale) [9]: 5 (5=80-100% damage); PRE Application SETFA herbicidal damage (five point scale) (Setaria faberi (SETFA) [10]): 2 (2=20-39% damage); POST Application ECHCG herbicidal damage (five point scale) [11]: 5 (5=80-100% damage); POST Application ALOMY herbicidal damage (five point scale) [12]: 5 (5=80-100% damage)
Cn1ncc(-c2cccn(-c3cccc([N+](=O)[O-])c3)c2=O)c(O)c1=O [Compound 1.147],1 (1=0-19% damage),1 (1=0-19% damage),1 (1=0-19% damage),1 (1=0-19% damage),3 (3=40-59% damage),2 (2=20-39% damage),1 (1=0-19% damage),1 (1=0-19% damage),–,–,–,–,–,–,–,–,–,–,–,–,POST Application AMARE herbicidal damage (five point scale) [9]: 1 (1=0-19% damage); PRE Application SETFA herbicidal damage (five point scale) (Setaria faberi (SETFA) [10]): 2 (2=20-39% damage); POST Application ECHCG herbicidal damage (five point scale) [11]: 1 (1=0-19% damage); POST Application ALOMY herbicidal damage (five point scale) [12]: 1 (1=0-19% damage)
Cn1ncc(-c2cccn(-c3cccc(F)c3)c2=O)c(O)c1=O [Compound 1.148],1 (1=0-19% damage),4 (4=60-79% damage),1 (1=0-19% damage),1 (1=0-19% damage),3 (3=40-59% damage),1 (1=0-19% damage),3 (3=40-59% damage),2 (2=20-39% damage),–,–,–,–,–,–,–,–,–,–,–,–,POST Application AMARE herbicidal damage (five point scale) [9]: 2 (2=20-39% damage); PRE Application SETFA herbicidal damage (five point scale) (Setaria faberi (SETFA) [10]): 1 (1=0-19% damage); POST Application ECHCG herbicidal damage (five point scale) [11]: 2 (2=20-39% damage); POST Application ALOMY herbicidal damage (five point scale) [12]: 1 (1=0-19% damage)
Cn1ncc(-c2c(F)cnc(F)c2F)c(O)c1=O [Compound 1.149],1 (1=0-19% damage),1 (1=0-19% damage),1 (1=0-19% damage),1 (1=0-19% damage),4 (4=60-79% damage),1 (1=0-19% damage),1 (1=0-19% damage),1 (1=0-19% damage),–,–,–,–,–,–,–,–,–,–,–,–,POST Application AMARE herbicidal damage (five point scale) [9]: 4 (4=60-79% damage); PRE Application SETFA herbicidal damage (five point scale) (Setaria faberi (SETFA) [10]): 1 (1=0-19% damage); POST Application ECHCG herbicidal damage (five point scale) [11]: 1 (1=0-19% damage); POST Application ALOMY herbicidal damage (five point scale) [12]: 2 (2=20-39% damage)
COc1nccc(-c2cnn(C)c(=O)c2O)c1Cl [Compound 1.150],–,–,–,–,–,–,–,–,1 (1=0-19% damage),1 (1=0-19% damage),1 (1=0-19% damage),1 (1=0-19% damage),4 (4=60-79% damage),2 (2=20-39% damage),1 (1=0-19% damage),2 (2=20-39% damage),1 (1=0-19% damage),1 (1=0-19% damage),1 (1=0-19% damage),1 (1=0-19% damage),–
Cc1nc2nc(C(F)(F)F)c(-c3cnn(C)c(=O)c3O)cc2cc1F [Compound 1.151],–,–,–,–,–,–,–,–,2 (2=20-39% damage),5 (5=80-100% damage),4 (4=60-79% damage),5 (5=80-100% damage),5 (5=80-100% damage),5 (5=80-100% damage),5 (5=80-100% damage),5 (5=80-100% damage),5 (5=80-100% damage),2 (2=20-39% damage),5 (5=80-100% damage),5 (5=80-100% damage),–
Cn1ncc(-c2cccn(-c3cccc(C(F)(F)F)c3)c2=O)c(O)c1=O [Compound 1.152],–,–,–,–,–,–,–,–,4 (4=60-79% damage),1 (1=0-19% damage),2 (2=20-39% damage),2 (2=20-39% damage),1 (1=0-19% damage),2 (2=20-39% damage),2 (2=20-39% damage),1 (1=0-19% damage),1 (1=0-19% damage),5 (5=80-100% damage),1 (1=0-19% damage),1 (1=0-19% damage),–
COc1ccc(-c2cnn(C)c(=O)c2O)c(OC)n1 [Compound 1.153],–,–,–,–,–,–,–,–,1 (1=0-19% damage),1 (1=0-19% damage),2 (2=20-39% damage),2 (2=20-39% damage),4 (4=60-79% damage),2 (2=20-39% damage),2 (2=20-39% damage),3 (3=40-59% damage),2 (2=20-39% damage),1 (1=0-19% damage),1 (1=0-19% damage),1 (1=0-19% damage),–
Cc1ccc2cc(-c3cnn(C)c(=O)c3O)c(C(F)(F)F)nc2n1 [Compound 1.154],–,–,–,–,–,–,–,–,2 (2=20-39% damage),5 (5=80-100% damage),2 (2=20-39% damage),5 (5=80-100% damage),5 (5=80-100% damage),5 (5=80-100% damage),5 (5=80-100% damage),5 (5=80-100% damage),5 (5=80-100% damage),2 (2=20-39% damage),5 (5=80-100% damage),4 (4=60-79% damage),–
CS(=O)(=O)c1ccc(-c2cnn(C3CC3)c(=O)c2O)c(Cl)c1C1=NOCC1 [Compound 1.158],–,–,–,–,–,–,–,–,3 (3=40-59% damage),5 (5=80-100% damage),4 (4=60-79% damage),5 (5=80-100% damage),5 (5=80-100% damage),5 (5=80-100% damage),5 (5=80-100% damage),3 (3=40-59% damage),5 (5=80-100% damage),3 (3=40-59% damage),5 (5=80-100% damage),5 (5=80-100% damage),–
Cn1ncc(-n2ccc(C(F)(F)F)c(-c3ccccc3Cl)c2=O)c(O)c1=O [Compound 1.159],–,–,–,–,–,–,–,–,5 (5=80-100% damage),5 (5=80-100% damage),5 (5=80-100% damage),5 (5=80-100% damage),5 (5=80-100% damage),5 (5=80-100% damage),5 (5=80-100% damage),1 (1=0-19% damage),5 (5=80-100% damage),5 (5=80-100% damage),5 (5=80-100% damage),4 (4=60-79% damage),–
